Test results: DBAASP
In brackets after ≈: the same amount, converted by molar mass. One block for each compound: values may come before it.

Experiments:
Assay in all cases: ≥ marks a high value that may be exact or a test limit, other limits are often not marked, values filed in µg/mL are converted to µM
[1] = tested on: Escherichia coli ATCC 25922
[2] = tested on: Staphylococcus aureus NCTC 8325
[3] = tested on: Pseudomonas aeruginosa Ps4
[4] = tested on: Bacillus subtilis ATCC 23857
[5] = tested on: Bacillus subtilis CMCC 63501
[6] = tested on: Enterococcus faecalis ATCC 29212
[7] = tested on: Escherichia coli UB1005
[8] = tested on: Salmonella enterica subsp. enterica serovar Typhimurium C77-31
[9] = tested on: Staphylococcus aureus ATCC 29213
[10] = tested on: Salmonella enterica subsp. enterica serovar Pullorum C79-13
[11] = tested on: Staphylococcus aureus ATCC 43300
[12] = tested on: Staphylococcus epidermidis ATCC 12228
[13] = tested on: Pseudomonas aeruginosa ATCC 27853
[14] = tested on: Klebsiella pneumoniae ATCC 700603
[15] = tested on: Staphylococcus aureus ATCC 25923
[16] = tested on: Streptococcus mutans
[17] = tested on: Acinetobacter baumannii ATCC 19606

MIC [1]: 37.5 µM (≈ 63.3 µg/mL)
MIC [2]: ≥ 150 µM
SMILES: CC[C@H](C)[C@H](NC(=O)[C@H](CCCCN)NC(=O)[C@H](C)NC(=O)[C@H](CC(C)C)NC(=O)[C@H](CC(=O)O)NC(=O)[C@@H](NC(=O)[C@H](C)N)C(C)C)C(=O)N[C@@H](C)C(=O)N[C@@H](CC(N)=O)C(=O)N[C@@H](CCCCN)C(=O)N[C@H](C(=O)N[C@@H](CC(C)C)C(=O)N[C@@H](CO)C(=O)N[C@@H](CO)C(=O)N[C@@H](CC(C)C)C(=O)N[C@@H](Cc1ccccc1)C(N)=O)C(C)C [AVDLAKIANKVLSSLF]

MIC [3]: ≥ 157 µM
SMILES: CC[C@H](C)[C@H](NC(=O)[C@H](CCCN=C(N)N)NC(=O)[C@@H](NC(=O)[C@H](CC(N)=O)NC(=O)[C@H](CCCN=C(N)N)NC(=O)[C@H](CCC(N)=O)NC(=O)[C@H](Cc1c[nH]c2ccccc12)NC(=O)[C@H](Cc1ccccc1)NC(=O)[C@@H](N)Cc1ccccc1)[C@@H](C)CC)C(=O)N[C@@H](CCCN=C(N)N)C(=O)N[C@@H](CCCN=C(N)N)C(N)=O [FFWQRNIRIRR]

MIC [3]: ≥ 194 µM
SMILES: CC[C@H](C)[C@H](NC(=O)[C@H](CCCN=C(N)N)NC(=O)[C@H](CCC(N)=O)NC(=O)[C@H](Cc1c[nH]c2ccccc12)NC(=O)[C@@H](N)Cc1ccccc1)C(=O)N[C@@H](CCCN=C(N)N)C(=O)N[C@@H](CCCCN)C(=O)N[C@H](C(=O)N[C@@H](CCCN=C(N)N)C(N)=O)C(C)C [FWQRIRKVR]

MIC [3]: ≥ 170 µM
SMILES: CC[C@H](C)[C@H](NC(=O)[C@H](CC(N)=O)NC(=O)[C@H](CCCN=C(N)N)NC(=O)[C@H](CCC(N)=O)NC(=O)[C@H](Cc1c[nH]c2ccccc12)NC(=O)[C@@H](N)Cc1ccccc1)C(=O)N[C@@H](CCCN=C(N)N)C(=O)N[C@@H](CCCCN)C(=O)N[C@@H](Cc1ccc(O)cc1)C(=O)N[C@@H](CCCN=C(N)N)C(N)=O [FWQRNIRKYR]

MIC [3]: ≥ 184 µM
SMILES: CC[C@H](C)[C@H](NC(=O)[C@H](CC(N)=O)NC(=O)[C@H](CCCN=C(N)N)NC(=O)[C@H](CCC(N)=O)NC(=O)[C@H](Cc1c[nH]c2ccccc12)NC(=O)[C@@H](N)Cc1ccccc1)C(=O)N[C@@H](CCCN=C(N)N)C(=O)N[C@@H](CO)C(=O)N[C@H](C(=O)N[C@@H](CCCN=C(N)N)C(N)=O)C(C)C [FWQRNIRSVR]

MIC [3]: ≥ 184 µM
SMILES: CC[C@H](C)[C@H](NC(=O)[C@H](Cc1c[nH]c2ccccc12)NC(=O)[C@H](CC(N)=O)NC(=O)[C@H](CCCN=C(N)N)NC(=O)[C@H](CCC(N)=O)NC(=O)[C@H](Cc1c[nH]c2ccccc12)NC(=O)[C@@H](N)Cc1ccccc1)C(=O)N[C@@H](CCCN=C(N)N)C(=O)N[C@@H](CCCN=C(N)N)C(N)=O [FWQRNWIRR]

MIC [3]: ≥ 187 µM
SMILES: CC[C@H](C)[C@H](NC(=O)[C@H](CC(N)=O)NC(=O)[C@H](CO)NC(=O)[C@H](CCC(N)=O)NC(=O)[C@H](Cc1c[nH]c2ccccc12)NC(=O)[C@@H](N)Cc1ccccc1)C(=O)N[C@@H](CCCN=C(N)N)C(=O)N[C@@H](CCCCN)C(=O)N[C@H](C(=O)N[C@@H](CCCN=C(N)N)C(N)=O)C(C)C [FWQSNIRKVR]

MIC [3]: 23.9 µM (≈ 31.2 µg/mL)
SMILES: CC[C@H](C)[C@H](NC(=O)[C@H](CCCN=C(N)N)NC(=O)[C@H](Cc1c[nH]c2ccccc12)NC(=O)[C@H](CCCN=C(N)N)NC(=O)[C@H](Cc1c[nH]c2ccccc12)NC(=O)[C@@H](N)Cc1ccccc1)C(=O)N[C@@H](Cc1c[nH]c2ccccc12)C(=O)N[C@@H](CCCN=C(N)N)C(N)=O [FWRWRIWR]

MIC [3]: ≥ 181 µM
SMILES: CC[C@H](C)[C@H](NC(=O)[C@H](CC(N)=O)NC(=O)[C@H](CCCN=C(N)N)NC(=O)[C@H](CCC(N)=O)NC(=O)[C@H](Cc1ccc(O)cc1)NC(=O)[C@@H](N)Cc1ccccc1)C(=O)N[C@@H](CCCN=C(N)N)C(=O)N[C@@H](CCCCN)C(=O)N[C@H](C(=O)N[C@@H](CCCN=C(N)N)C(N)=O)C(C)C [FYQRNIRKVR]

MIC [1]: 64 µM (≈ 78.3 µg/mL)
MIC [4]: ≥ 32 µM
SMILES: CC[C@H](C)[C@H](NC(=O)CNC(=O)[C@H](C)NC(=O)[C@@H](NC(=O)[C@H](C)NC(=O)CN)[C@@H](C)CC)C(=O)N[C@H](C(=O)N[C@H](C(=O)N[C@@H](CCCCN)C(=O)N[C@H](C(=O)N[C@@H](CCCCN)C(=O)N[C@@H](CCCCN)C(N)=O)[C@@H](C)CC)[C@@H](C)CC)[C@@H](C)CC [GAIAGIIIKIKK]

MIC [5]: 8 µM (≈ 16.8 µg/mL)
MIC [6]: 16 µM (≈ 33.5 µg/mL)
MIC [1]: 4 µM (≈ 8.39 µg/mL)
MIC [7]: 4 µM (≈ 8.39 µg/mL)
MIC [8]: 8 µM (≈ 16.8 µg/mL)
MIC [9]: 16 µM (≈ 33.5 µg/mL)
MIC [10]: 8 µM (≈ 16.8 µg/mL)
MIC [11]: 8 µM (≈ 16.8 µg/mL)
MIC [12]: 16 µM (≈ 33.5 µg/mL)
MIC [13]: 16 µM (≈ 33.5 µg/mL)
SMILES: CC[C@H](C)[C@H](NC(=O)[C@H](CCCN=C(N)N)NC(=O)CNC(=O)[C@@H](NC(=O)[C@@H](NC(=O)[C@H](CCCN=C(N)N)NC(=O)[C@H](CCCCN)NC(=O)[C@H](Cc1ccccc1)NC(=O)[C@H](CCC(=O)O)NC(=O)[C@H](CCCCN)NC(=O)CN)[C@@H](C)CC)C(C)C)C(=O)N[C@@H](Cc1ccc(O)cc1)C(=O)N[C@@H](CCCN=C(N)N)C(=O)N[C@@H](CC(C)C)C(=O)N[C@@H](CS)C(=O)N[C@@H](CS)C(=O)N[C@@H](CCCN=C(N)N)C(N)=O [GKEFKRIVGRIYRLCCR]

MIC [5]: 2 µM (≈ 3.83 µg/mL)
MIC [14]: 8 µM (≈ 15.3 µg/mL)
MIC [15]: 8 µM (≈ 15.3 µg/mL)
MIC [8]: 4 µM (≈ 7.67 µg/mL)
MIC [9]: 4 µM (≈ 7.67 µg/mL)
MIC [10]: 1 µM (≈ 1.92 µg/mL)
MIC [12]: 4 µM (≈ 7.67 µg/mL)
MIC [13]: 4 µM (≈ 7.67 µg/mL)
MIC [4]: 4 µM (≈ 7.67 µg/mL)
SMILES: CC[C@H](C)[C@H](N)C(=O)N[C@@H](CCCN=C(N)N)C(=O)N[C@H](C(=O)N[C@@H](CCCN=C(N)N)C(=O)N[C@@H](CS)C(=O)N[C@@H](CCCN=C(N)N)C(=O)N[C@@H](CCCN=C(N)N)C(=O)N[C@@H](CCCN=C(N)N)C(=O)N[C@@H](Cc1ccccc1)C(=O)N[C@@H](CS)C(=O)N[C@@H](CCCN=C(N)N)C(=O)N[C@H](C(=O)N[C@@H](CCCN=C(N)N)C(=O)N[C@H](C(N)=O)[C@@H](C)CC)[C@@H](C)CC)[C@@H](C)CC [IRIRCRRRFCRIRI]

MIC [16]: ≥ 88.8 µM
SMILES: CC[C@H](C)[C@H](NC(=O)[C@H](CCC(N)=O)NC(=O)[C@H](CC(N)=O)NC(=O)[C@H](Cc1ccccc1)NC(=O)[C@@H](NC(=O)[C@H](CCC(N)=O)NC(=O)[C@H](CC(C)C)NC(=O)[C@H](CC(C)C)NC(=O)[C@@H](N)CCCCN)[C@@H](C)O)C(=O)N[C@@H](Cc1ccccc1)C(=O)N[C@@H](CCCN=C(N)N)C(=O)O [KLLQTFNQIFR]

MIC [16]: ≥ 178 µM
SMILES: CC[C@H](C)[C@H](NC(=O)[C@@H](N)CCCN=C(N)N)C(=O)N[C@@H](CC(C)C)C(=O)N[C@@H](CCCCN)C(=O)N[C@@H](CCC(=O)O)C(=O)N[C@@H](CC(C)C)C(=O)N[C@@H](CCCCN)C(=O)N[C@@H](CC(N)=O)C(=O)N[C@@H](CC(C)C)C(=O)N[C@@H](Cc1ccccc1)C(=O)N[C@@H](CCCCN)C(=O)O [RILKELKNLFK]

MIC [16]: 14.6 µM (≈ 17 µg/mL)
SMILES: NC(=O)[C@H](Cc1ccccc1)NC(=O)[C@H](CCCN=C(N)N)NC(=O)[C@H](CCCN=C(N)N)NC(=O)[C@H](Cc1c[nH]c2ccccc12)NC(=O)[C@H](Cc1c[nH]c2ccccc12)NC(=O)[C@H](CCCN=C(N)N)NC(=O)[C@@H](N)CCCN=C(N)N [RRWWRRF]

MIC [16]: 3.76 µM (≈ 11.3 µg/mL)
SMILES: CC[C@H](C)[C@H](NC(=O)CNC(=O)CNC(=O)CNC(=O)[C@H](Cc1ccccc1)NC(=O)[C@H](Cc1c[nH]c2ccccc12)NC(=O)[C@H](CCCN=C(N)N)NC(=O)[C@H](Cc1c[nH]c2ccccc12)NC(=O)[C@H](CCCN=C(N)N)NC(=O)[C@H](Cc1c[nH]c2ccccc12)NC(=O)[C@@H](N)CCCN=C(N)N)C(=O)N[C@@H](CCCCN)C(=O)N[C@@H](CCC(N)=O)C(=O)N[C@@H](CC(C)C)C(=O)N[C@@H](CC(C)C)C(=O)N[C@@H](Cc1cnc[nH]1)C(=O)N[C@@H](Cc1ccccc1)C(=O)N[C@@H](Cc1ccccc1)C(=O)N[C@@H](CCC(N)=O)C(=O)N[C@@H](Cc1c[nH]c2ccccc12)C(=O)N[C@@H](CCCN=C(N)N)C(=O)N[C@@H](Cc1ccccc1)C(N)=O [RWRWRWFGGGIKQLLHFFQWRF]

MIC [6]: 32 µM (≈ 55.3 µg/mL)
MIC [1]: 32 µM (≈ 55.3 µg/mL)
MIC [17]: 32 µM (≈ 55.3 µg/mL)
MIC [14]: 32 µM (≈ 55.3 µg/mL)
MIC [15]: 8 µM (≈ 13.8 µg/mL)
MIC [12]: 32 µM (≈ 55.3 µg/mL)
MIC [13]: 8 µM (≈ 13.8 µg/mL)
MIC [4]: 4 µM (≈ 6.92 µg/mL)
SMILES: NC(=O)[C@H](Cc1c[nH]c2ccccc12)NC(=O)[C@H](Cc1c[nH]c2ccccc12)NC(=O)[C@H](CCCN=C(N)N)NC(=O)[C@H](CCCN=C(N)N)NC(=O)[C@H](Cc1c[nH]c2ccccc12)NC(=O)[C@H](CCCN=C(N)N)NC(=O)[C@H](CCCN=C(N)N)NC(=O)[C@H](Cc1c[nH]c2ccccc12)NC(=O)[C@H](Cc1c[nH]c2ccccc12)NC(=O)[C@@H](N)CCCN=C(N)N [RWWRRWRRWW]
